In the case of `CC(=O)NCc1cccc(NC(=O)c2nnn(Cc3ccc(Cl)c(Cl)c3)c2C)c1` [Example 43, N-{3-[(Acetylamino)methyl]phenyl}-1-[(3,4-dichlorophenyl)methyl]-5-methyl-1H-1,2,3-triazole-4-carboxamide], the melting point (commonly the temperature of the solid-liquid transition) is 188.4 °C.
The compound `Cc1c(C(=O)Nc2cccc(C(C)O)c2)nnn1Cc1ccc(Cl)c(Cl)c1` (stereo not shown) [Example 44, 1-[(3,4-Dichlorophenyl)methyl]-N-[3-(1-hydroxyethyl)phenyl]-5-methyl-1H-1,2,3-triazole-4-carboxamide] gave a melting point of 145 °C.
As to `Cc1c(C(=O)Nc2ccc(Cl)c(CO)c2)nnn1Cc1ccc(Cl)c(Cl)c1` [Example 45, N-[4-Chloro-3-(hydroxymethyl)phenyl]-1-[(3,4-dichlorophenyl)methyl]-5-methyl-1H-1,2,3-triazole-4-carboxamide], the melting point came to 190.3 °C.
Consider `COC(=O)c1ccc(NC(=O)c2nnn(Cc3ccc(Cl)c(Cl)c3)c2C)cc1C(=O)OC` [Example 46, Dimethyl 4-[({1-[(3,4-dichlorophenyl)methyl]-5-methyl-1H-1,2,3-triazol-4-yl}carbonyl)amino]-1,2-benzenedicarboxylate], for which the melting point was 148 °C.
`COC(=O)c1cc(NC(=O)c2nnn(Cc3cc(Cl)cc(Cl)c3)c2C)ccc1F` [Example 47, Methyl 5-[({1-[(3,5-dichlorophenyl)methyl]-5-methyl-1H-1,2,3-triazol-4-yl}carbonyl)amino]-2-fluorobenzoate] came in with a melting point of 191 °C.
`CCOC(=O)c1ccc(NC(=O)c2nnn(Cc3ccc(Cl)c(Cl)c3)c2C)cc1` [Example 48, Ethyl 4-[({1-[(3,4-dichlorophenyl)methyl]-5-methyl-1H-1,2,3-triazol-4-yl}carbonyl)amino]benzoate] registered a melting point of 167 °C.
Take `COc1cc(CO)ccc1NC(=O)c1nnn(Cc2ccc(Cl)c(Cl)c2)c1C` [Example 49, 1-[(3,4-Dichlorophenyl)methyl]-N-[4-(hydroxymethyl)-2-(methyloxy)phenyl]-5-methyl-1H-1,2,3-triazole-4-carboxamide]: the melting point amounted to 136 °C.
Next, `Cc1c(C(=O)Nc2ccc(CCO)cc2)nnn1Cc1ccc(Cl)c(Cl)c1` [Example 50, 1-[(3,4-Dichlorophenyl)methyl]-N-[4-(2-hydroxyethyl)phenyl]-5-methyl-1H-1,2,3-triazole-4-carboxamide]: 144 °C; `COc1ccc(CO)cc1NC(=O)c1nnn(Cc2ccc(Cl)c(Cl)c2)c1C` [Example 51, 1-[(3,4-Dichlorophenyl)methyl]-N-[5-(hydroxymethyl)-2-(methyloxy)phenyl]-5-methyl-1H-1,2,3-triazole-4-carboxamide]: 198 °C.
On to `Cc1c(C(=O)Nc2cc(CO)cc(CO)c2)nnn1Cc1ccc(Cl)c(Cl)c1` [Example 52, N-[3,5-bis(Hydroxymethyl)phenyl]-1-[(3,4-dichlorophenyl)methyl]-5-methyl-1H-1,2,3-triazole-4-carboxamide], for which the melting point stood at 194.5 °C.
Next, `Cc1c(C(=O)Nc2ccc(F)c(CO)c2)nnn1Cc1ccc(Cl)c(Cl)c1` [Example 53, 1-[(3,4-Dichlorophenyl)methyl]-N-[4-fluoro-3-(hydroxymethyl)phenyl]-5-methyl-1H-1,2,3-triazole-4-carboxamide]: 189.7 °C; `COc1ccc(CCO)cc1NC(=O)c1nnn(Cc2ccc(Cl)c(Cl)c2)c1C` [Example 54, 1-[(3,4-Dichlorophenyl)methyl]-N-[5-(2-hydroxyethyl)-2-(methyloxy)phenyl]-5-methyl-1H-1,2,3-triazole-4-carboxamide]: 138 °C; `Cc1c(C(=O)Nc2cc(CO)ccc2F)nnn1Cc1ccc(Cl)c(Cl)c1` [Example 55, 1-[(3,4-Dichlorophenyl)methyl]-N-[2-fluoro-5-(hydroxymethyl)phenyl]-5-methyl-1H-1,2,3-triazole-4-carboxamide]: 210.5 °C.
On to `Cc1c(C(=O)Nc2cc(CO)ccc2Cl)nnn1Cc1ccc(Cl)c(Cl)c1` [Example 56, N-[2-Chloro-5-(hydroxymethyl)phenyl]-1-[(3,4-dichlorophenyl)methyl]-5-methyl-1H-1,2,3-triazole-4-carboxamide], for which the melting point was determined as 220 °C.
`COc1ccc(CO)cc1NC(=O)c1nnn(Cc2cc(Cl)cc(Cl)c2)c1C` [Example 57, 1-[(3,5-Dichlorophenyl)methyl]-N-[5-(hydroxymethyl)-2-(methyloxy)phenyl]-5-methyl-1H-1,2,3-triazole-4-carboxamide]: the melting point amounted to 214 °C.
Regarding `Cc1c(C(=O)Nc2ccc(CO)c(CO)c2)nnn1Cc1ccc(Cl)c(Cl)c1` [Example 58, N-[3,4-bis(Hydroxymethyl)phenyl]-1-[(3,4-dichlorophenyl)methyl]-5-methyl-1H-1,2,3-triazole-4-carboxamide], the melting point was found to be 203 °C.
The compound `Cc1c(C(=O)Nc2ccc(F)c(CO)c2)nnn1Cc1cc(Cl)cc(Cl)c1` [Example 59, 1-[(3,5-Dichlorophenyl)methyl]-N-[4-fluoro-3-(hydroxymethyl)phenyl]-5-methyl-1H-1,2,3-triazole-4-carboxamide] came in with a melting point of 178 °C.
Consider `Cc1c(C(=O)Nc2cc(CO)cc(CO)c2)nnn1Cc1ccccc1` [Example 60, N-[3,5-bis(Hydroxymethyl)phenyl]-5-methyl-1-(phenylmethyl)-1H-1,2,3-triazole-4-carboxamide], for which the melting point worked out at 148.2 °C.
With `Cc1c(C(=O)Nc2cc(CO)cc(CO)c2)nnn1Cc1cccc(Cl)c1` [Example 61, -[3,5-bis(Hydroxymethyl)phenyl]-1-[(3-chlorophenyl)methyl]-5-methyl-1H-1,2,3-triazole-4-carboxamide], the melting point is 192.7 °C.
`Cc1c(C(=O)Nc2cccc(CCO)c2)nnn1Cc1ccc(Cl)c(Cl)c1` [Example 62, 1-[(3,4-Dichlorophenyl)methyl]-N-[3-(2-hydroxyethyl)phenyl]-5-methyl-1H-1,2,3-triazole-4-carboxamide] registered a melting point of 142 °C.
`Cc1c(C(=O)Nc2cccc(C(=O)O)c2)nnn1Cc1ccc(Cl)c(Cl)c1` [Example 63, 3-[({1-[(3,4-Dichlorophenyl)methyl]-5-methyl-1H-1,2,3-triazol-4-yl}carbonyl)amino]benzoic acid] displayed a melting point of 267.6 °C.
With `COc1ccc(C(=O)O)cc1NC(=O)c1nnn(Cc2ccc(Cl)c(Cl)c2)c1C` [Example 64, 3-[({1-[(3,4-Dichlorophenyl)methyl]-5-methyl-1H-1,2,3-triazol-4-yl}carbonyl)amino]-4-(methyloxy)benzoic acid], the melting point was 243.9 °C.
In turn, `Cc1c(C(=O)Nc2cc(C(=O)O)cc(C(=O)O)c2)nnn1Cc1ccccc1` [Example 65, 5-({[5-Methyl-1-(phenylmethyl)-1H-1,2,3-triazol-4-yl]carbonyl}amino)-1,3-benzenedicarboxylic acid] showed a melting point of 307.2 °C.
Regarding `Cc1c(C(=O)Nc2ccc(C(=O)O)cc2)nnn1Cc1ccc(Cl)c(Cl)c1` [Example 66, 4-[({1-[(3,4-Dichlorophenyl)methyl]-5-methyl-1H-1,2,3-triazol-4-yl}carbonyl)amino]benzoic acid], the melting point was greater than 260 °C.
For the compound `CCNC(=O)c1cccc(NC(=O)c2nnn(Cc3ccc(Cl)c(Cl)c3)c2C)c1` [Example 67, 1-[(3,4-Dichlorophenyl)methyl]-N-{3-[(ethylamino)carbonyl]phenyl}-5-methyl-1H-1,2,3-triazole-4-carboxamide], the melting point is 192.2 °C.
Turning to `Cc1c(C(=O)Nc2cccc(C(=O)NCCO)c2)nnn1Cc1ccc(Cl)c(Cl)c1` [Example 68, 1-[(3,4-Dichlorophenyl)methyl]-N-(3-{[(2-hydroxyethyl)amino]carbonyl}phenyl)-5-methyl-1H-1,2,3-triazole-4-carboxamide], the melting point amounted to 190.7 °C.
Turning to `CNC(=O)c1ccc(OC)c(NC(=O)c2nnn(Cc3ccc(Cl)c(Cl)c3)c2C)c1` [Example 69, 1-[(3,4-Dichlorophenyl)methyl]-5-methyl-N-[5-[(methylamino)carbonyl]-2-(methyloxy)phenyl]-1H-1,2,3-triazole-4-carboxamide], the melting point came out at 222.2 °C.
For the compound `CC(=O)OCc1cccc(NC(=O)c2nnn(Cc3ccc(Cl)c(Cl)c3)c2C)c1` [Example 70, {3-[({1-[(3,4-Dichlorophenyl)methyl]-5-methyl-1H-1,2,3-triazol-4-yl}carbonyl)amino]phenyl}methyl acetate], the melting point was greater than 70 °C.
On to `Cc1c(C(=O)Nc2ccc(OCCO)cc2)nnn1Cc1ccc(Cl)c(Cl)c1` [Example 74, 1-[(3,4-Dichlorophenyl)methyl]-N-{4-[(2-hydroxyethyl)oxy]phenyl}-5-methyl-1H-1,2,3-triazole-4-carboxamide], for which the melting point was determined as 140 °C.
For the compound `Cc1c(C(=O)Nc2cccc(C(C)(C)O)c2)nnn1Cc1ccc(Cl)c(Cl)c1` [Example 76, 1-[(3,4-Dichlorophenyl)methyl]-N-[3-(1-hydroxy-1-methylethyl)phenyl]-5-methyl-1H-1,2,3-triazole-4-carboxamide], the melting point turned out to be 58 °C.
`Cc1c(C(=O)Nc2ccc(OCCN(C)C)c(CO)c2)nnn1Cc1ccc(Cl)c(Cl)c1` [Example 77, 1-[(3,4-Dichlorophenyl)methyl]-N-[4-{[2-(dimethylamino)ethyl]oxy}-3-(hydroxymethyl)phenyl]-5-methyl-1H-1,2,3-triazole-4-carboxamide] gave a melting point of 163.1 °C.
In turn, `Cc1c(C(=O)Nc2cccc(OCCO)c2)nnn1Cc1ccc(Cl)c(Cl)c1` [Example 78, 1-[(3,4-Dichlorophenyl)methyl]-N-{3-[(2-hydroxyethyl)oxy]phenyl}-5-methyl-1H-1,2,3-triazole-4-carboxamide] yielded a melting point of 144.9 °C.
Under `Cc1c(CNc2cc(CO)cc(CO)c2)nnn1Cc1ccc(Cl)c(Cl)c1` [Example 79, {5-[({1-[(3,4-Dichlorophenyl)methyl]-5-methyl-1H-1,2,3-triazol-4-yl}methyl)amino]benzene-1,3-diyl}dimethanol] stands 120 °C.
`Cc1c(C(=O)Nc2ccc(CO)c(CO)c2)nnn1Cc1ccccc1` [Example 80, N-[3,4-bis(Hydroxymethyl)phenyl]-5-methyl-1-(phenylmethyl)-1H-1,2,3-triazole-4-carboxamide] displayed a melting point of 171.4 °C.
